How the values were obtained:
S-protein = details: cited from earlier work
Ribonuclease S = Ribonuclease S activity, degradation of yeast polymeric RNA (absorbance at 255 nm); assay type: biochemical, bovine; details: for effect on RNase S activity (in words): consecutive addition to S-protein + bS15 reaction mix; for Activity: initial velocity relative to S-protein (50 ng) plus S15 (10 μg) = 100%, consecutive addition of S-protein (50 ng), bS15 (approx. 5 μg), streptavidin (10 μg), S15 (5 μg), 75 ug/mL yeast RNA, pH 7.0, 25° C., 2 minutes
Procedure: Ribonuclease S activity was measured in terms of degradation of yeast polymeric RNA. Degradation was monitored as an increase in absorbance at 255 nm of the reaction cocktail. The reaction cocktail included 50 mM imidazole.HCl buffer, pH 7.0, 0.1 M NaCl, and 75 ug/mL yeast RNA, in a volume of 800 uL. The change in absorbance was monitored at 25° C. for 2 minutes following the consecutive addition of S-protein (50 ng), bS15 (approx. 5 μg), streptavidin (10 μg), and authentic S15 (5 μg).
For comparison, the degradative activity in a reaction mix containing S-protein (50 ng) plus S15 (10 μg) is defined to be 100%. […] The initial velocity of each reaction was determined from the initial slope of a plot of absorbance v. time.

S-peptide: residues 1-20 of RNase A, subtilisin cleavage product
Kd (S-protein; S-peptide and S-protein, read-out: dissociation constant): 1 nM

streptavidin
effect on RNase S activity (in words) (Ribonuclease S): sufficient to inactivate RNase S
Activity (Ribonuclease S): < 0.01%

S15: truncated S-peptide formed from the first 15 residues of the S-peptide, SEQ ID NO:1 (KETAAAKFERQHMDS)
effect on RNase S activity (in words) (Ribonuclease S): RNase S activity could be reconstituted
Activity (Ribonuclease S): 40%
binding to S-protein compared with intact S-peptide (S-protein; truncated S-peptide, first 15 residues): binds equally well
